From paper PMC2747021, “Synergistic Antibacterial and Anti-Inflammatory Activity of Temporin A and Modified Temporin B In Vivo” (PLoS ONE, 2009)
No end group written: not given here.

Assays:
Escherichian coli = conditions: 20 h
[1] = system: Staphilococcus .aureus A172; conditions: 20 h
[2] = system: Staphilococcus aureus 007; conditions: 20 h
[3] = system: Salmonella enterica serovar Paratyphi; assay: Antibacterial activity, MIC100 broth dilution; type: cell-based; conditions: single peptide; MIC100, MH broth, about 10^6 CFU/ml, 37°C 20 h, absorbance 600 nm, triplicate
Listeria monocytogenes = conditions: 20 h
[4] = system: Staphilococcus.aureus A170; conditions: single peptide; MIC100, MH broth, about 10^6 CFU/ml, 37°C 20 h, absorbance 600 nm, triplicate

Substance: KKYLLPIVGNLLKSLL-NH2 [TB-YK]
- MIC (Escherichian coli): 20 µg/mL
- MIC [1]: 25 µg/mL
- MIC [2]: 10 µg/mL
- MIC [3]: 20 µg/mL
- MIC (Listeria monocytogenes): 10 µg/mL
- MIC [4]: 20 µg/mL
